{"source": "patent US8466169B2", "about": "“SF5 derivatives as PAR1 inhibitors, production thereof, and use as medicaments” (Sanofi, priority 2008, dated 2013)", "key": {"PAR1 [1]": {"biological_target": "T1, PAR1 (Homo sapiens, UniProt P25116)", "T1 sequence (P25116 22-425)": "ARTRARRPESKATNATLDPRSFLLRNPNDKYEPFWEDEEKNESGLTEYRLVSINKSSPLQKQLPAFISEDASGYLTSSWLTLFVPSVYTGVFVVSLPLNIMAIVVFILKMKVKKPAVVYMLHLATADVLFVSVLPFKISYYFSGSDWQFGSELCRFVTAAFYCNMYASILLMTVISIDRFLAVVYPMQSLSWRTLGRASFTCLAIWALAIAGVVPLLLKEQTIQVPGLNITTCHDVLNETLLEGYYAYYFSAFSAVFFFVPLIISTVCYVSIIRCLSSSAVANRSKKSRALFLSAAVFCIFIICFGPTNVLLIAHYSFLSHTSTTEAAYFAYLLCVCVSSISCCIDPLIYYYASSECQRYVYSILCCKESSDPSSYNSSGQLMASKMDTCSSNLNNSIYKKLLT", "experiment": "PAR1 binding test (radioligand displacement, membrane preparation)", "design": "expressed in transfected cells; host or cells: High Five insect cells (transient expression), membrane preparation", "conditions": "human PAR1 receptor expressed in High Five insect cells, membrane 1 mg/ml, radioligand 20 nM, 60 minutes; read-out: Inhibition of binding IC50", "experimental": "The synthesized substances were examined in a PAR1 binding test. This tested whether the substances can inhibit the binding of a radioactively labeled PAR1 agonist known from the literature at the PAR1 receptor (Ho-Sam Ahn, Mol Pharm, 51:350-356, 1997).\nThe human PAR1 receptor was expressed transiently in High Five insect cells. From these cells, after 48 hours, a membrane preparation was produced by standard methods, aliquoted into 10 mM Tris-HCl; 0.3 mM EDTA; 1 mM EGTA; 250 mM sucrose pH 7.5, and stored at −80° C.\nThe substances were preincubated with the membrane at RT for 15 minutes, then the radioligand (ALA-(para-F-Phe)-Arg-ChA-homoArg-(3,4-^3H-Tyr)-NH2; approx. 40 Ci/mMol) was added. The end concentration of the radioligand in the test buffer (50 mM Tris-HCl; 10 mM MgCl2; 1 mM EGTA; 0.1% BSA; 2% DMSO) was 20 nM, that of the membrane 1 mg/ml. After an incubation time of 60 minutes, 25 μl of the mixture were transferred to a 96-well MultiScreenHTS FB microtiter filtration plate (from Millipore), which had been pretreated beforehand with a 0.75% aqueous polyethyleneimine solution for 5 hours at RT. Thereafter, with vacuum extraction, each well was washed four times with 300 μl of buffer (50 mM Tris-HCl; 10 mM MgCl2; 1 mM EGTA). The plate was then dried overnight, 100 μl of scintillator per well were added, and the plate was analyzed after 6 hours in a Wallac MicroBeta (from PerkinElmer) liquid scintillation counter. The nonspecific binding was determined in the presence of 100 μM SCH79797 (PAR-1 antagonist; from Tocris, Cat. No. 1592) and subtracted from all measurements. The 100% value used was a control without inhibitor. The % inhibition values of a substance dilution series were used to calculate the IC50 with the aid of nonlinear regression analysis according to the 4-parameter equation."}, "PAR1 [2]": {"biological_target": "T1, PAR1", "experiment": "Inhibition of PAR1-mediated platelet aggregation induced by TRAP", "format": "cell-based", "design": "endogenous in cells; host or cells: washed human blood platelets from volunteer donors", "conditions": "washed platelets from healthy volunteer donors, TRAP (thrombin receptor-activating peptide) as agonist, 96-well format, AUC at 650 nm", "experimental": "Inhibition of PAR1-Mediated Platelet Aggregation\nThe biological testing of the substances took place in platelet aggregation induced by TRAP (thrombin receptor-activating peptide) in 96-well format. For this purpose, blood was taken from healthy volunteer donors in 20 ml syringes containing 2 ml of 3.13% sodium citrate solution. After centrifugation at 150×g for 20 minutes, the platelet-rich plasma (PRP) was separated off and admixed with 1 μl of PGE1 solution (500 μg/ml in ethanol)/ml of PRP. Incubation at RT for 5 minutes was followed by centrifugation at 120×g for 15 minutes to remove the leukocytes. The leukocyte-free PRP was transferred in 5 ml portions into 15 ml PP tubes and centrifuged at 360×g for 15 minutes in order to pellet the platelets. The plasma was then decanted off and the platelet sediment from 5 ml of PRP was resuspended in 1 ml of Tyrode's (120 mM NaCl, 2.6 mM KCl, 12 mM NaHCO3, 0.39 mM NaH2PO4×H2O, 10 mM HEPES, 0.35% BSA, 5.5 mM glucose, pH 7.4) and adjusted with Tyrode's to a platelet count of 3×10^5/microliter (μl). 13 ml of this cell suspension were then mixed with 866 μl of 10 mM CaCl2 solution, and 120 μl thereof were pipetted into each well of a 96-well plate containing 15 μl of the substance to be tested. After incubation at RT in the dark for 30 minutes, 15 μl of a TRAP solution (70-100 μM) were added as agonist, and kinetics were recorded at 650 nm in a SpectraMax 340 at 37° C. for 20 minutes while shaking. The areas under the curves of negative control (Tyrode's/DMSO) and positive control (15 μl of agonist/DMSO) were calculated and the difference was fixed as the 100% value. The substances to be tested were pipetted as serial dilutions in duplicate determination, the AUC was likewise determined for each substance concentration, and the % inhibition of the AUC compared with the control was calculated. On the basis of the % inhibition, the IC50 was calculated by nonlinear regression analysis according to the 4-parameter equation."}}}
{"molecule": "CCOc1cc2c(c(F)c1OCC)C(=N)N(CC(=O)c1cc(NC(=O)CC(C)(C)C)cc(S(F)(F)(F)(F)F)c1)C2", "note": "[Example 17, N-{3-[2-(5,6-Diethoxy-7-fluoro-1-imino-1,3-dihydroisoindol-2-yl)acetyl]-5-pentafluorosulfanylphenyl}-3,3-dimethylbutyramide]", "values": [{"measurement": "IC50", "setting": "PAR1 [1]", "result": 360, "unit": "nM"}]}
{"molecule": "CCOc1cc2c(c(F)c1OCC)C(=N)N(CC(=O)c1cc(NC(C)=O)cc(S(F)(F)(F)(F)F)c1)C2", "note": "[Example 14]", "values": [{"measurement": "IC50", "setting": "PAR1 [1]", "result": 227, "unit": "nM"}]}
{"molecule": "CCOc1cc2c(c(F)c1OCC)C(=N)N(CC(=O)c1cc(Br)c(S(F)(F)(F)(F)F)cc1N)C2", "note": "[Example 20, 1-[2-Amino-5-bromo-4-(pentafluorosulfanyl)phenyl]-2-(5,6-diethoxy-7-fluoro-1-imino-1,3-dihydroisoindol-2-yl)ethanone]", "values": [{"measurement": "IC50", "setting": "PAR1 [1]", "result": 128, "unit": "nM"}]}
{"molecule": "CCOc1cc2c(cc1C(=O)NC)C(=N)N(CC(=O)c1cc(NC)cc(S(F)(F)(F)(F)F)c1)C2", "note": "[Example 3, N-Methyl-6-ethoxy-3-imino-2-[2-(3-methylamino-5-pentafluorosulfanylphenyl)-2-oxoethyl]-2,3-dihydro-1H-isoindole-5-carboxamide]", "values": [{"measurement": "IC50", "setting": "PAR1 [2]", "result": 2, "unit": "nM"}]}
{"molecule": "CCOc1cc2c(c(F)c1OCC)C(=N)N(CC(=O)c1ccc(S(F)(F)(F)(F)F)cc1N)C2", "note": "[Example 19, 1-[2-Amino-4-(pentafluorosulfanyl)phenyl]-2-(5,6-diethoxy-7-fluoro-1-imino-1,3-dihydroisoindol-2-yl)ethanone]", "values": [{"measurement": "IC50", "setting": "PAR1 [2]", "result": 98, "unit": "nM"}]}
{"molecule": "CCOc1cc2c(c(F)c1OCC)C(=N)N(CC(=O)c1cc(N(C)C(C)=O)cc(S(F)(F)(F)(F)F)c1)C2", "note": "[Example 12, N-[3-[2-(5,6-diethoxy-7-fluoro-1-imino-1,3-dihydroisoindol-2-yl)acetyl]-5-(pentafluorosulfanyl)phenyl]-N-methylacetamide]", "values": [{"measurement": "IC50", "setting": "PAR1 [2]", "result": 387, "unit": "nM"}]}
{"molecule": "CCOc1cc2c(cc1C(=O)NC)C(=N)N(CC(=O)c1cc(NC(C)=O)cc(S(F)(F)(F)(F)F)c1)C2", "note": "[Example 8, N-Methyl-2-[2-(3-acetylamino-5-pentafluorosulfanylphenyl)-2-oxoethyl]-6-ethoxy-3-imino-2,3-dihydro-1H-isoindole-5-carboxamide]", "values": [{"measurement": "IC50", "setting": "PAR1 [2]", "result": 17, "unit": "nM"}]}
{"molecule": "CCOc1cc2c(c(F)c1OCC)C(=N)N(CC(=O)c1cc(OC)cc(S(F)(F)(F)(F)F)c1)C2", "note": "[Example 21, 2-(5,6-Diethoxy-7-fluoro-1-imino-1,3-dihydroisoindol-2-yl)-1-[3-methoxy-5-(pentafluorosulfanyl)phenyl]ethanone]", "values": [{"measurement": "IC50", "setting": "PAR1 [2]", "result": 28, "unit": "nM"}]}
{"molecule": "CCOc1cc2c(cc1C(=O)NC)C(=N)N(CC(=O)c1cc(NC(=O)C(F)(F)F)cc(S(F)(F)(F)(F)F)c1)C2", "note": "[Example 4, N-Methyl-6-ethoxy-3-imino-2-{2-[3-pentafluorosulfanyl-5-(2,2,2-trifluoroacetylamino)phenyl]-2-oxoethyl}-2,3-dihydro-1H-isoindole-5-carboxamide]", "values": [{"measurement": "IC50", "setting": "PAR1 [1]", "result": 4800, "unit": "nM"}]}
{"molecule": "CCOc1cc2c(c(F)c1OCC)C(=N)N(CC(=O)c1cc(Cl)cc(S(F)(F)(F)(F)F)c1)C2", "note": "[Example 27, 1-[3-Chloro-5-(pentafluorosulfanyl)phenyl]-2-(5,6-diethoxy-7-fluoro-1-imino-1,3-dihydroisoindol-2-yl)ethanone]", "values": [{"measurement": "IC50", "setting": "PAR1 [1]", "result": 1700, "unit": "nM"}]}
{"molecule": "CCOc1cc2c(c(F)c1OCC)C(=N)N(CC(=O)c1cc(N3C(=O)CCC3=O)cc(S(F)(F)(F)(F)F)c1)C2", "note": "[Example 18, 1-{3-[2-(5,6-Diethoxy-7-fluoro-1-imino-1,3-dihydroisoindol-2-yl)acetyl]-5-pentafluorosulfanylphenyl}pyrrolidine-2,5-dione]", "values": [{"measurement": "IC50", "setting": "PAR1 [2]", "result": 175, "unit": "nM"}]}
{"molecule": "CCOc1cc(C(=O)CN2Cc3cc(OCC)c(OCC)c(F)c3C2=N)cc(S(F)(F)(F)(F)F)c1", "note": "[Example 24, 2-(5,6-Diethoxy-7-fluoro-1-imino-1,3-dihydroisoindol-2-yl)-1-[3-ethoxy-5-(pentafluorosulfanyl)phenyl]ethanone]", "values": [{"measurement": "IC50", "setting": "PAR1 [1]", "result": 512, "unit": "nM"}]}
{"molecule": "CCOc1cc2c(c(F)c1OCC)C(=N)N(CC(=O)c1cc(N3CCOCC3)cc(S(F)(F)(F)(F)F)c1)C2", "note": "[Example 30, 2-(5,6-Diethoxy-7-fluoro-1-imino-1,3-dihydroisoindol-2-yl)-1-[3-morpholin-4-yl-5-(pentafluorosulfanyl)phenyl]ethanone]", "values": [{"measurement": "IC50", "setting": "PAR1 [1]", "result": 225, "unit": "nM"}]}
{"molecule": "CCOc1cc2c(c(F)c1OCC)C(=N)N(CC(=O)c1cc(N)c(S(F)(F)(F)(F)F)cc1C)C2", "note": "[Example 16, 1-[5-Amino-2-methyl-4-(pentafluorosulfanyl)phenyl]-2-(5,6-diethoxy-7-fluoro-1-imino-1,3-dihydroisoindol-2-yl)ethanone]", "values": [{"measurement": "IC50", "setting": "PAR1 [2]", "result": 10600, "unit": "nM"}]}
{"molecule": "CCOc1cc2c(cc1C(=O)NC)C(=N)N(CC(=O)c1cc(N(C)C)cc(S(F)(F)(F)(F)F)c1)C2", "note": "[Example 2, N-Methyl-2-[2-(3-dimethylamino-5-pentafluorosulfanylphenyl)-2-oxoethyl]-6-ethoxy-3-imino-2,3-dihydro-1H-isoindole-5-carboxamide]", "values": [{"measurement": "IC50", "setting": "PAR1 [2]", "result": 597, "unit": "nM"}]}
{"molecule": "CCOc1cc2c(cc1C(=O)NC)C(=N)N(CC(=O)c1cc(N(S(C)(=O)=O)S(C)(=O)=O)cc(S(F)(F)(F)(F)F)c1)C2", "note": "[Example 10, N-Methyl-6-ethoxy-3-imino-2-{2-[3-dimethanesulfonylamino-5-(pentafluorosulfanyl)phenyl]-2-oxoethyl}-2,3-dihydro-1H-isoindole-5-carboxamide]", "values": [{"measurement": "IC50", "setting": "PAR1 [2]", "result": 718, "unit": "nM"}]}
